Experimental data published in ChEMBL document CHEMBL1152923, “ent-Kaurane diterpenoids from Isodon pharicus” (J Nat Prod, 2009).

How the values were obtained:
Format in all cases: functional, cell-based
[1] = test system: A549; assay: Cytotoxicity against human A549 cells after 48 hrs by SRB method; conditions: A549, 48 h
[2] = test system: MCF7; assay: Cytotoxicity against human MCF7 cells after 48 hrs by SRB method; conditions: MCF7, 48 h
[3] = test system: NB-4; assay: Cytotoxicity against human NB4 cells after 48 hrs by SRB method; conditions: NB-4, 48 h
[4] = test system: SH-SY5Y; assay: Cytotoxicity against human SH-SY5Y cells after 48 hrs by SRB method
[5] = test system: PC-3; assay: Cytotoxicity against human PC3 cells after 48 hrs by SRB method; conditions: PC-3, 48 h

Row | SMILES | IC50 [1] | IC50 [2] | IC50 [3] | IC50 [4] | IC50 [5]
1 | C=C1C(=O)[C@]23[C@H](O)[C@H]1C(=O)C[C@H]2[C@]1(C)CC[C@H](OC(C)=O)C(C)(C)[C@H]1C[C@H]3OC(C)=O | > 10 µM | > 10 µM | > 10 µM | > 10 µM | > 10 µM
2 | C=C1C(=O)[C@@]23[C@H](O)C[C@@H]4C(C)(C)[C@H](O)CC[C@@]4(C)[C@@H]2C[C@H](OC(C)=O)[C@@H]1[C@H]3O | > 10 µM | > 10 µM | 8.32 µM | 8.12 µM | > 10 µM
3 | C=C1[C@H]2[C@@H](OC(C)=O)[C@@]3(CC[C@@H]4C(C)(C)[C@@H](O)CC[C@@]4(C)[C@@H]3C[C@@H]2O)[C@@H]1O | > 10 µM | > 10 µM | > 10 µM | > 10 µM | > 10 µM
4 | COC[C@@H]1C(=O)[C@@]23[C@H](O)C[C@@H]4C(C)(C)[C@@H](OC(C)=O)CC[C@@]4(C)[C@@H]2CC(=O)[C@@H]1[C@H]3O | > 10 µM | > 10 µM | 8.74 µM | > 10 µM | 7.42 µM
5 | C=C1C(=O)[C@@]23[C@H](O)C[C@@H]4C(C)(C)[C@@H](OC(C)=O)C[C@H](O)[C@@]4(C)[C@@H]2C[C@H](O)[C@@H]1[C@H]3O | > 10 µM | > 10 µM | > 10 µM | > 10 µM | > 10 µM
6 | C=C1C(=O)[C@@]23[C@@H]4OC(C)(C)O[C@@H]2C[C@@H]2C(C)(C)[C@H](O)CC[C@@]2(C)[C@@H]3C[C@H](O)[C@@H]14 | 6.02 µM | > 10 µM | 3.56 µM | > 10 µM | > 10 µM
7 | C=C1C(=O)[C@@]23[C@H](O)C[C@@H]4C(C)(C)[C@@H](O)CC[C@@]4(C)[C@@H]2C[C@H](O)[C@@H]1[C@H]3O [3-EPIPSEURATA B] | > 10 µM | > 10 µM | > 10 µM | > 10 µM | > 10 µM
8 | C=C1[C@@H]2C(=O)C[C@H]3[C@@]4(C)[C@H](C[C@@H](O)[C@@]3([C@@H]1O)[C@@H]2O)C(C)(C)[C@@H](OC(C)=O)C[C@@H]4O [DIHYDROPSEURATA F] | > 10 µM | > 10 µM | > 10 µM | > 10 µM | > 10 µM
9 | C=C1C(=O)[C@@]23[C@H](O)C[C@@H]4C(C)(C)C(=O)CC[C@@]4(C)[C@@H]2CC[C@@H]1[C@H]3O [GLAUCOCALYXIN A] | 5.39 µM | 8.73 µM | 2.9 µM | > 10 µM | > 10 µM
10 | C=C1C(=O)[C@@]23[C@H](O)C[C@@H]4C(C)(C)C(=O)CC[C@@]4(C)[C@@H]2CC[C@@H]1[C@H]3OC(C)=O [GLAUCOCALYXIN B] | 6.22 µM | > 10 µM | 7.86 µM | > 10 µM | > 10 µM
11 | C=C1C(=O)[C@@]23[C@H](O)C[C@@H]4C(C)(C)[C@@H](OC(C)=O)C[C@H](O)[C@@]4(C)[C@@H]2CC[C@@H]1[C@H]3O [ISODOMEDIN] | > 10 µM | > 10 µM | 7.29 µM | > 10 µM | > 10 µM
12 | C=C1C(=O)[C@@]23[C@H](O)C[C@@H]4C(C)(C)[C@@H](OC(C)=O)CC[C@@]4(C)[C@@H]2CC[C@@H]1[C@H]3O [LEUKAMENIN E] | > 10 µM | > 10 µM | 4 µM | > 10 µM | > 10 µM
13 | C=C1C(=O)[C@@]23[C@H](O)C[C@@H]4C(C)(C)[C@@H](O)C[C@H](O)[C@@]4(C)[C@@H]2CC[C@@H]1[C@H]3O [MINHERYIN G] | > 10 µM | > 10 µM | > 10 µM | > 10 µM | > 10 µM
14 | C=C1C(=O)[C@@]23C(CC[C@@H]1[C@H]2O)[C@]1(C)CC[C@@H](O)C(C)(C)[C@H]1C[C@H]3O (stereo not given in full) [PSEURATA A] | 2.92 µM | 9.05 µM | 7.69 µM | > 10 µM | > 10 µM
15 | C=C1C(=O)[C@@]23[C@H](O)C[C@@H]4C(C)(C)[C@H](O)CC[C@@]4(C)[C@@H]2C[C@H](O)[C@@H]1[C@H]3O [PSEURATA B] | > 10 µM | > 10 µM | > 10 µM | > 10 µM | > 10 µM
16 | C=C1C(=O)[C@@]23[C@H](O)C[C@@H]4C(C)(C)[C@@H](OC(C)=O)CC[C@@]4(C)[C@@H]2CC(=O)[C@@H]1[C@H]3O [PSEURATA C] | 7.62 µM | > 10 µM | 2.08 µM | > 10 µM | > 10 µM
17 | C=C1C(=O)[C@@]23[C@H](O)C[C@@H]4C(C)(C)[C@@H](OC(C)=O)C[C@H](O)[C@@]4(C)[C@@H]2CC(=O)[C@@H]1[C@H]3O [PSEURATA F] | > 10 µM | > 10 µM | > 10 µM | > 10 µM | > 10 µM
18 | C=C1C(=O)[C@@]23C(CC[C@@H]1[C@H]2O)[C@]1(C)CC[C@H](O)C(C)(C)[C@H]1C[C@H]3O (stereo not given in full) [WANGZAOZIN A] | 9.29 µM | 5.8 µM | 9.02 µM | > 10 µM | > 10 µM
